In paper PMC7926352, “Synthesis, Characterization and In Vitro Evaluation of Novel 5-Ene-thiazolo[3,2-b][1,2,4]triazole-6(5H)-ones as Possible Anticancer Agents” (Molecules, 2021):
Read-outs that look alike come from different tables or passages of the source.

Key:
[1] = tested on: RPMI-8226
[2] = tested on: COLO 205; type: cell-based; conditions: COLO 205, Colon cancer; for CC50: read-out: LC50 (the source's name)
[3] = tested on: T-47D; type: cell-based; conditions: Breast Cancer; for CC50: read-out: LC50 (the source's name)
[4] = tested on: NSCLC (Non-small Cell Lung Cancer) cell lines
[5] = tested on: Melanoma cell lines
[6] = tested on: SF-295
[7] = tested on: SK-MEL-5
[8] = tested on: BT-549
[9] = tested on: UACC-62
[10] = tested on: SK-OV-3
[11] = tested on: CNS Cancer cell lines
[12] = tested on: panel of approximately sixty human tumor cell lines; test: NCI-60 human tumor cell lines screen (SRB), full panel; type: cell-based; conditions: for GI50: read-out: GI50, Total MG_MID; for Positive Cytostatic Effect: ratio of number of cell lines with percent growth from 0 to 50 to total number of cell lines
Description: Compounds 2a, 2c–f, 2h–l, 3, 5e, 5f were selected for antitumor activity which was performed according to the standard protocols of National Cancer Institute (NCI, Bethesda, MD, USA) Developmental Therapeutic Program (DTP). At the prescreening stage, the compounds were evaluated for antitumor activity at the concentration of 10 µM against a panel of approximately sixty cancer cell lines representing different types of cancer including leukemia, melanoma, lung, colon, CNS, ovarian, renal, prostate and breast cancers.
Among them, three compounds (2d, 2h, 2i) presented excellent cytotoxic and four derivatives (2d, 2h, 2i, 2k) cytostatic properties in one or more cell lines when applied at a concentration of 10 µM. […] The outcomes were calculated and presented in the form of three response parameters (GI50, TGI and LC50) for each cell line via growth percentage inhibition curves. […]
The primary anticancer assay was performed on a panel of approximately sixty human tumor cell lines derived from nine neoplastic diseases (leukemia, melanoma, lung, colon, CNS, ovarian, renal, prostate, and breast cancers), in accordance with the protocol of the National Cancer Institute Drug Evaluation Branch (Bethesda, MD, USA). Tested compounds were added to the culture at a single concentration (10^−5 M) and the cultures were incubated for 48 h. End-point determinations were made with a protein-binding dye, sulforhodamine B (SRB). Results for each tested compound were reported as the percentage of the growth of the treated cells when compared to the untreated control cells. The percentage of the growth was evaluated spectrophotometrically versus controls not treated with test agents. […] Using absorbance measurements [time zero (Tz), control growth in the absence of drug (C), and test growth in the presence of the drug (Ti)], the percentage growth was calculated for each drug concentration. Percentage growth inhibition was calculated as:[(Ti − Tz)/[…]] × 100(1) for concentrations for which Ti ≥ Tz, [(Ti − Tz)/Tz] × 100 for concentrations for which Ti < Tz. Dose-response parameters (GI50, TGI) were calculated for each compound. Growth inhibition of 50% (GI50) was calculated from [(Ti − Tz)/(C − Tz)] × 100 = 50, which is the drug concentration resulting in a 50% lower net protein increase in the treated cells (measured by SRB staining) as compared to the net protein increase seen in the control cells. The drug concentration resulting in total growth inhibition (TGI) was calculated from Ti = Tz. Values were calculated for each of these parameters if the level of activity was reached; however, if the effect was not reached or was excessive, the value for that parameter was expressed as more or less than the maximum or minimum concentration tested. The lowest values were obtained with the most sensitive cell lines. Compounds having GI50 values ≤ 100 μM were declared to be active. The selectivity index (SI) calculated by dividing the full panel MG_MID (full-panel mean-graph midpoint) (μM) of the compounds 2h and 2i by their individual subpanel MG_MID of a cell line (μM) was considered as a measure of compounds’ selectivity. Ratios between 3 and 6 mean moderate selectivity, ratios greater than 6 indicate high selectivity toward the corresponding cell line, while compounds not meeting either of these criteria are rated nonselective.

[13] = 60 cell lines assay in one dose, 10 μM, 48 h
[14] = Homo sapiens, read-out: GI50, panel MG_MID
[15] = Homo sapiens, read-out: GI50, values range inside panel
[16] = Homo sapiens, read-out: LC50, panel MG_MID
[17] = Homo sapiens, read-out: LC50, values range inside panel

For “Ethyl(Z)-4-(3-(4-chloro-2-((6-oxothiazolo[3,2-b][1,2,4]triazol-5(6H)-ylidene)methyl)phenyl)propanamido)benzoate [Compound 2i]”, the GI50 ([1]; RPMI-8226, Leukemia) was 5.37 µM, the TGI ([1]; RPMI-8226, Leukemia) was 25.70 µM and the GI50 [2] was 14.8 µM. The TGI [2] was 31.62 µM, the CC50 [2] was 67.6 µM and the GI50 [3] was 11 µM. For the same molecule, the TGI [3] was 38.01 µM, the CC50 [3] was 41.7 µM and the “TGI, panel MG_MID” value ([4]; NSCLC subpanel) was 30.03 µM. For the same molecule, the “TGI, values range inside panel” value ([4]; NSCLC subpanel) was 25.70 to 39.81 µM, the GI50 ([4]; read-out: GI50, panel MG_MID, NSCLC subpanel) was 14.1 µM and the GI50 ([4]; read-out: GI50, values range inside panel, NSCLC subpanel) was 10.2 to 19.5 µM. The “TGI, panel MG_MID” value ([5]; Melanoma subpanel) was 25.61 µM, the “TGI, values range inside panel” value ([5]; Melanoma subpanel) was 18.19 to 33.11 µM and the GI50 ([5]; read-out: GI50, panel MG_MID, Melanoma subpanel) was 11.8 µM. It also gave a GI50 ([5]; read-out: GI50, values range inside panel, Melanoma subpanel) of 5.62 to 14.8 µM, a CC50 ([5]; read-out: LC50, panel MG_MID, Melanoma subpanel) of 55.4 µM and a GI50 ([6]; SF-295, CNS Cancer) of 10.5 µM. It also gave a TGI ([6]; SF-295, CNS Cancer) of 23.44 µM, a GI50 ([7]; SK-MEL-5, Melanoma) of 10.5 µM and a TGI ([7]; SK-MEL-5, Melanoma) of 21.87 µM. For the same molecule, the GI50 ([8]; BT-549, Breast Cancer) was 3.8 µM, the TGI ([8]; BT-549, Breast Cancer) was 15.84 µM and the GI50 ([9]; UACC-62, Melanoma) was 13.8 µM. The TGI ([9]; UACC-62, Melanoma) was 26.30 µM, the GI50 ([10]; SK-OV-3, Ovarian Cancer) was 19.9 µM and the TGI ([10]; SK-OV-3, Ovarian Cancer) was 35.48 µM. The “TGI, panel MG_MID” value ([11]; CNS Cancer subpanel) was 27.42 µM, the “TGI, values range inside panel” value ([11]; CNS Cancer subpanel) was 19.05 to 44.66 µM and the GI50 ([11]; read-out: GI50, panel MG_MID, CNS Cancer subpanel) was 9.85 µM. For the same molecule, the GI50 ([11]; read-out: GI50, values range inside panel, CNS Cancer subpanel) was 6.02 to 13.2 µM, the “Mean Growth, %” value [12, 13] was 61.05% and the “Range of Growth, %” value [12, 13] was −22.54 to 122.94%. The “TGI, Total MG_MID” value ([12]; full panel average) was 28.18 µM, the GI50 ([12]; full panel average) was 11 µM and the “Positive Cytostatic Effect” value ([12]; one dose, 10 μM) was 17/58.

With O=C(COc1ccc(Cl)cc1/C=c1\sc2ncnn2c1=O)Nc1ccc(Cl)cc1 [Compound 2h, (Z)-2-(4-Chloro-2-((6-oxothiazolo[3,2-b][1,2,4]triazol-5(6H)-ylidene)methyl)phenoxy)-N-(4-chlorophenyl)acetamide] the GI50 ([1]; Homo sapiens, RPMI-8226) was 1.69 µM, the CC50 ([1]; Homo sapiens, RPMI-8226, read-out: LC50) was 26.9 µM and the TGI ([1]; RPMI-8226, Leukemia) was 4.89 µM. The TGI [2] was 19.95 µM, the GI50 ([2]; Homo sapiens) was 7.58 µM and the CC50 ([2]; Homo sapiens) was 44.7 µM. For the same molecule, the TGI [3] was 25.70 µM, the GI50 ([3]; Homo sapiens, T47D) was 7.76 µM and the CC50 ([3]; Homo sapiens, T47D) was 28.8 µM. The GI50 [4, 14] was 6.98 µM, the GI50 [4, 15] was 2.29 to 15.5 µM and the CC50 [4, 16] was 44 µM. For the same molecule, the CC50 [4, 17] was 31.6 to 60.2 µM, the “TGI, panel MG_MID” value ([4]; NSCLC subpanel) was 18.22 µM and the “TGI, values range inside panel” value ([4]; NSCLC subpanel) was 9.99 to 30.90 µM. It also gave a GI50 [5, 14] of 4.79 µM, a GI50 [5, 15] of 2.63 to 8.31 µM and a CC50 [5, 16] of 41.2 µM. The CC50 [5, 17] was 33.1 to 51.3 µM, the “TGI, panel MG_MID” value ([5]; Melanoma subpanel) was 16.49 µM and the “TGI, values range inside panel” value ([5]; Melanoma subpanel) was 11.22 to 20.89 µM. The GI50 ([6]; Homo sapiens, SF-295) was 1.86 µM, the CC50 ([6]; Homo sapiens, SF-295, read-out: LC50) was 18.6 µM and the TGI ([6]; SF-295, CNS Cancer) was 5.24 µM. For the same molecule, the GI50 ([7]; Homo sapiens, SK-MEL-5) was 3.23 µM, the CC50 ([7]; Homo sapiens, SK-MEL-5, read-out: LC50) was 38 µM and the TGI ([7]; SK-MEL-5, Melanoma) was 14.79 µM. The TGI ([8]; BT-549, Breast Cancer) was 8.51 µM, the GI50 ([8]; Homo sapiens, BT-549) was 2.34 µM and the CC50 ([8]; Homo sapiens, BT-549, read-out: LC50) was 35.5 µM. The GI50 ([9]; Homo sapiens, UACC-62) was 2.69 µM, the CC50 ([9]; Homo sapiens, UACC-62, read-out: LC50) was 38 µM and the TGI ([9]; UACC-62, Melanoma) was 14.79 µM. For the same molecule, the GI50 ([10]; Homo sapiens, SK-OV-3) was 15.5 µM, the CC50 ([10]; Homo sapiens, SK-OV-3, read-out: LC50) was 53.7 µM and the TGI ([10]; SK-OV-3, Ovarian Cancer) was 28.84 µM. For the same molecule, the “TGI, panel MG_MID” value ([11]; CNS Cancer subpanel) was 10.76 µM, the “TGI, values range inside panel” value ([11]; CNS Cancer subpanel) was 4.46 to 15.48 µM and the GI50 [11, 14] was 2.87 µM. The GI50 [11, 15] was 1.77 to 4.07 µM, the CC50 [11, 16] was 38.6 µM and the CC50 [11, 17] was 12.6 to 87.1 µM. For the same molecule, the activity at 10 µM ([12]; Homo sapiens, 60 cell lines assay in one dose, 10 μM, 48 h, read-out: Mean Growth, %) was 29%, the activity at 10 µM ([12]; Homo sapiens, 60 cell lines assay in one dose, 10 μM, 48 h, read-out: Range of Growth, %) was -48 to 122% and the GI50 ([12]; Homo sapiens, full panel average) was 3.54 µM. For the same molecule, the CC50 ([12]; Homo sapiens, full panel average, read-out: LC50, Total MG_MID) was 37.1 µM, the “TGI, Total MG_MID” value ([12]; full panel average) was 12.88 µM and the “Positive Cytostatic Effect” value ([12]; one dose, 10 μM) was 30/57. For the same molecule, the “Positive Cytotoxic Effect” value ([12]; one dose, 10 μM, ratio of number of cell lines with percent growth of <0 to total number of cell lines) was 12/57.
